Here are results for 14 molecules from PubChem BioAssay (NCI).

Assay in all cases: DTP human tumour cell line panel, 48 h
Experiment [1] relates to HOP-62 NSCLC.
The test system of experiment [2] is MDA-MB-435.
Experiment [3] has as its system HCT-116 colon.
In experiment [4] the test system is TK-10 renal.
Experiment [5] relates to NCI-H522 lung.
Experiment [6] deals with ACHN renal.
In experiment [7] the test system is EKVX NSCLC.
For experiment [8], the system named is RPMI-8226 leukemia.
For experiment [9], the system named is CAKI-1 renal.
The subject of experiment [10] is M14 melanoma.
Experiment [11] has as its system SNB-78 CNS.
Experiment [12] concerns XF 498 CNS.
For experiment [13], the system named is DMS 273 small cell lung.
For experiment [14], the system named is NCI/ADR-RES ovarian.
Experiment [15] concerns T-47D breast.
The subject of experiment [16] is PC-3 prostate.

Converted amounts (≈) assume the structure as drawn.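 Each compound was tested at five concentrations against cells in 96-well plates for 48 hours. Abbreviation: GI50, concentration required for 50% inhibition of growth. TGI denotes the concentration required for complete inhibition of growth.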

In general, GI50 refers to the concentration that inhibits growth by half. Usually TGI stands for the concentration at which net growth stops. Consider `Cc1nc2nc(C)n(CCN3CCOCC3)c(=O)c2c(-c2cccc([N+](=O)[O-])c2)c1C(=O)CCCCCCCCCCN1CCC(c2ccccc2)(c2ccccc2)CC1`, for which the GI50 in [1] was 2.07 µg/mL (≈ 2.55 µM); in [2] it was 1.9 µg/mL (≈ 2.34 µM); in experiment [3], 1.63 µg/mL (≈ 2 µM); in experiment [4], 2.41 µg/mL (≈ 2.96 µM). Further, the concentration for total growth inhibition (TGI) in [1] came out at 4.06 µg/mL; in experiment [2], 3.79 µg/mL; in experiment [3], 3.45 µg/mL; in [4], 4.45 µg/mL.
With `Cc1cc(=O)oc2c1cc1ccc3cccc4ccc2c1c34`, the TGI in experiment [5], in [6], in [7], in experiment [8], in experiment [9] and in [10] was over 100 µM each time. The TGI in experiment [4] and in [11] was over 100 µM throughout.
Turning to `ICC1CCCO1` (stereo not drawn), the concentration for total growth inhibition (TGI) in experiment [6], in experiment [12], in [7], in [8], in experiment [9] and in [10] was over 100 µM throughout. The TGI in [3], in [4], in experiment [11] and in [13] was over 100 µM throughout.
Turning to `Cc1cc(O)c2c(c1)C(=O)c1c(c(O)cc(O)c1-c1c(O)cc(O)c3c1C(=O)c1cc(C)cc(O)c1C3=O)C2=O`, the total growth inhibition concentration (TGI) in [5] was found to be 59 µM; in experiment [1], 32.3 µM; in experiment [12] it was 53.4 µM; in experiment [7] it was 34.9 µM; in experiment [8], 32.9 µM; in experiment [14], 152 µM. Besides, the TGI worked out at 51.4 µM in experiment [9], 33.7 µM in experiment [3], 105 µM in experiment [11] and 30.3 µM in experiment [13].
Take `CC1(C)OCC(CO)(CO)CO1`: the total growth inhibition concentration (TGI) in experiment [5], in experiment [6], in experiment [15], in experiment [2], in experiment [14] and in experiment [16] was over 100 µM throughout. For the same molecule, the TGI in [10], in [3] and in [4] was over 100 µM each time.
Turning to `CCOP(=O)(C/C=C/Cn1ncc(=O)[nH]c1=O)OCC`, the concentration for total growth inhibition (TGI) in experiment [5], in [6], in [1], in experiment [15], in [2] and in experiment [7] was over 100 µM in each case. Besides, the TGI in experiment [8], in experiment [14], in [9], in experiment [16], in experiment [10] and in experiment [4] was over 100 µM each time.
Turning to `c1ccc(C2=NN2c2ccccc2)cc1`, the total growth inhibition concentration (TGI) in experiment [5], in [6], in experiment [1], in [15], in [2] and in experiment [7] was over 100 µM in each case. Moreover, the TGI in [14], in experiment [9], in [16], in [10] and in [4] was over 100 µM each time.
With `O=C(O)CCC(NC(=O)c1ccc(Nc2cnc3cc(C(F)(F)F)ccc3n2)cc1)C(=O)O` (stereo not drawn), the TGI in [5], in experiment [1], in experiment [12], in experiment [7], in experiment [8] and in experiment [14] was over 100 µM throughout. In addition, the TGI in experiment [3], in [11] and in [13] was over 100 µM throughout.
In the case of `CN1CCC2(c3ccccc3)CC(=O)/C(=C/c3ccc(Cl)c(Cl)c3)C1C2` (stereo not drawn), the concentration for total growth inhibition (TGI) in [5] was 3.6 µM; in [6], 3.17 µM; in experiment [1] it was 12.3 µM; in [15], over 41.5 µM; in experiment [2], 5.14 µM; in experiment [7] it was 9.63 µM. In addition, the TGI in [8] was 5.13 µM; in experiment [14], 11 µM; in experiment [9] it was 13.8 µM; in experiment [16], 4.52 µM; in experiment [10], 8.59 µM; in experiment [3], over 21 µM. In [4], this molecule gave a TGI of 11.7 µM.
`C=C1CC(OC)(C(OC)C(=O)N[C@H]2OCO[C@H]3C2O[C@H](C[C@@H](COC)OC)C(C)(C)C3OC)O[C@H](C)[C@@H]1C` (stereo partly drawn): the TGI was 8.46 µM in [1]; 2.54 µM in experiment [12]; 0.917 µM in experiment [8]; over 47 µM in experiment [14]; 3.6 µM in experiment [9]; 5.77 µM in experiment [3]. Also, the TGI was determined as 4.81 µM in [11] and 3.79 µM in experiment [13].
For `O=Cc1cn(CCCCCCCCn2cc(C=O)c3ccccc32)c2ccccc12`, the concentration for total growth inhibition (TGI) in [5], in [6], in [1], in [15], in [2] and in experiment [7] was over 10 µM each time. In addition, the TGI in [8], in [14], in [9], in experiment [16], in experiment [10] and in experiment [3] was over 10 µM each time. The same molecule registered a TGI in experiment [4] of over 10 µM.
On to `O=C(NN1C(=O)CS(=O)(=O)C1c1ccc(Cl)c(Cl)c1)c1ccncc1` (stereo not drawn), for which the TGI in experiment [5] was over 100 µM; in [1], over 100 µM; in experiment [12], over 100 µM; in experiment [7], over 100 µM; in experiment [8], over 71.5 µM; in experiment [14] it was over 100 µM. The TGI is over 100 µM in [9], over 100 µM in [3], over 100 µM in experiment [11] and over 31.6 µM in experiment [13].
As for `Cc1[nH]c(C)c(CN(C)C)c1CN(C)C`, the TGI in experiment [5], in experiment [6], in experiment [1], in experiment [15], in [2] and in [7] was over 100 µM each time. In addition, the TGI in experiment [8], in experiment [14], in experiment [9], in experiment [16], in experiment [10] and in [3] was over 100 µM throughout. This molecule also yielded a TGI in experiment [4] of over 100 µM.
Take `O=C=C=P(c1ccccc1)(c1ccccc1)c1ccccc1`: the TGI was over 100 µM in experiment [6]; 89.7 µM in experiment [12]; over 100 µM in experiment [7]; over 100 µM in experiment [8]; over 100 µM in experiment [9]; over 100 µM in experiment [10]. For the same molecule, the concentration for total growth inhibition (TGI) in [3], in experiment [11] and in experiment [13] was over 100 µM throughout.
